Results published in ChEMBL document CHEMBL1201862, “PubChem BioAssay data set” (2004).
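Each compound was tested at five concentrations against cells in 96-well plates for 48 hours. GI50: concentration for 50% inhibition of growth.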 Activity calls are given as the source filed them. Cut-off read from the data, not from the text of the source: active = GI50 up to about 1.1 µM and inactive = higher.

Experiments:
Experiment in all cases: NCI anticancer screen, dose series, 48 h
A498 = system: A498
EKVX = system: EKVX
KM-20L2 = system: KM-20L2
HOP-92 = system: HOP-92
IGROV-1 = system: IGROV-1
COLO 205 = system: COLO 205
HT-29 = system: HT-29
DMS-114 = system: DMS-114
OVCAR-5 = system: OVCAR-5
SNB-75 = system: SNB-75
DMS-273 = system: DMS-273
HCC 2998 = system: HCC 2998
SF-295 = system: SF-295
SK-MEL-28 = system: SK-MEL-28
NCI-H522 = system: NCI-H522
HOP-18 = system: HOP-18
ACHN = system: ACHN
SW-620 = system: SW-620
K562 = system: K562
KM12 = system: KM12
M14 = system: M14
SF-268 = system: SF-268
NCI-H23 = system: NCI-H23
OVCAR-4 = system: OVCAR-4
OVCAR-3 = system: OVCAR-3
UACC-62 = system: UACC-62
SF-539 = system: SF-539
U-251 = system: U-251
MOLT-4 = system: MOLT-4
SR = system: SR
SK-OV-3 = system: SK-OV-3
RPMI-8226 = system: RPMI-8226
LXFL 529 = system: LXFL 529
Malme-3M = system: Malme-3M
NCI-H226 = system: NCI-H226
TK-10 = system: TK-10
SNB-78 = system: SNB-78
HL-60 = system: HL-60
OVCAR-8 = system: OVCAR-8
UO-31 = system: UO-31
A549 = system: A549
M19-MEL = system: M19-MEL
SN12C = system: SN12C
HCT-15 = system: HCT-15
HCT-116 = system: HCT-116
CCRF-CEM = system: CCRF-CEM
DLD-1 = system: DLD-1
CAKI-1 = system: CAKI-1
SK-MEL-5 = system: SK-MEL-5
SK-MEL-2 = system: SK-MEL-2
HOP-62 = system: HOP-62
UACC-257 = system: UACC-257
SNB-19 = system: SNB-19
XF498 = system: XF498
786-0 = system: 786-0
LOX IMVI = system: LOX IMVI
NCI-H460 = system: NCI-H460

CC(=O)OCC1=C(COC(C)=O)C(=O)c2c(O)ccc(O)c2C1=O
GI50 (A498): 18.4 µM (inactive) | GI50 (EKVX): 15.1 µM (inactive) | GI50 (KM-20L2): 13.4 µM (inactive) | GI50 (HOP-92): 2.54 µM (inactive) | GI50 (IGROV-1): 16 µM (inactive) | GI50 (COLO 205): 2.38 µM (inactive) | GI50 (HT-29): 11.7 µM (inactive) | GI50 (DMS-114): 11.2 µM (inactive) | GI50 (OVCAR-5): 16.4 µM (inactive) | GI50 (SNB-75): 16.1 µM (inactive) | GI50 (DMS-273): 15.5 µM (inactive) | GI50 (HCC 2998): 15.9 µM (inactive) | GI50 (SF-295): 13.4 µM (inactive) | GI50 (SK-MEL-28): 4.9 µM (inactive) | GI50 (NCI-H522): 1.55 µM (inactive) | GI50 (HOP-18): 21 µM (inactive) | GI50 (ACHN): 10.2 µM (inactive) | GI50 (SW-620): 3.21 µM (inactive) | GI50 (K562): 17.9 µM (inactive) | GI50 (KM12): 13.3 µM (inactive) | GI50 (M14): 5.3 µM (inactive) | GI50 (SF-268): 13.8 µM (inactive) | GI50 (NCI-H23): 12.1 µM (inactive) | GI50 (OVCAR-4): 10.8 µM (inactive) | GI50 (OVCAR-3): 7.1 µM (inactive) | GI50 (UACC-62): 5.56 µM (inactive) | GI50 (SF-539): 6.34 µM (inactive) | GI50 (U-251): 13.1 µM (inactive) | GI50 (MOLT-4): 1.37 µM (inactive) | GI50 (SR): 5.47 µM (inactive) | GI50 (SK-OV-3): 18.8 µM (inactive) | GI50 (RPMI-8226): 3.2 µM (inactive) | GI50 (LXFL 529): 2.55 µM (inactive) | GI50 (Malme-3M): 4.28 µM (inactive) | GI50 (NCI-H226): 15.8 µM (inactive) | GI50 (TK-10): 16.3 µM (inactive) | GI50 (SNB-78): 3.78 µM (inactive) | GI50 (HL-60): 1.49 µM (inactive) | GI50 (OVCAR-8): 10.2 µM (inactive) | GI50 (UO-31): 15.4 µM (inactive) | GI50 (A549): 17.4 µM (inactive) | GI50 (M19-MEL): 1.73 µM (inactive) | GI50 (SN12C): 10.4 µM (inactive) | GI50 (HCT-15): 10.4 µM | GI50 (HCT-116): 12.1 µM (inactive) | GI50 (CCRF-CEM): 2.45 µM (inactive) | GI50 (DLD-1): 1.43 µM (inactive) | GI50 (CAKI-1): 5.66 µM (inactive) | GI50 (SK-MEL-5): 14.8 µM (inactive) | GI50 (SK-MEL-2): 3.11 µM (inactive) | GI50 (HOP-62): 21 µM (inactive) | GI50 (UACC-257): 5.14 µM (inactive)

C(CCC[Te][Te]CCCCCCOC1CCCCO1)CCOC1CCCCO1 (stereo not given)
GI50 (A498): 17.6 µM (inactive) | GI50 (KM-20L2): 14.7 µM (inactive) | GI50 (HOP-92): 12.2 µM (inactive) | GI50 (IGROV-1): 16.5 µM (inactive) | GI50 (COLO 205): 15.7 µM (inactive) | GI50 (SNB-19): 14.4 µM (inactive) | GI50 (XF498): 10.2 µM (inactive) | GI50 (HT-29): 12 µM (inactive) | GI50 (DMS-114): 3.89 µM (inactive) | GI50 (OVCAR-5): 14 µM (inactive) | GI50 (SNB-75): 17.3 µM (inactive) | GI50 (HCC 2998): 14.1 µM (inactive) | GI50 (SF-295): 15.9 µM (inactive) | GI50 (SK-MEL-28): 14.1 µM (inactive) | GI50 (HOP-18): 19.3 µM (inactive) | GI50 (786-0): 15.5 µM (inactive) | GI50 (ACHN): 10.6 µM (inactive) | GI50 (SW-620): 18.2 µM (inactive) | GI50 (K562): 5.86 µM (inactive) | GI50 (KM12): 13.7 µM (inactive) | GI50 (M14): 21.1 µM (inactive) | GI50 (SF-268): 16.6 µM (inactive) | GI50 (NCI-H23): 12.4 µM (inactive) | GI50 (LOX IMVI): 13.6 µM (inactive) | GI50 (UACC-62): 10.6 µM (inactive) | GI50 (SF-539): 17.3 µM (inactive) | GI50 (U-251): 11.8 µM (inactive) | GI50 (MOLT-4): 9.82 µM (inactive) | GI50 (SR): 7.64 µM (inactive) | GI50 (SK-OV-3): 39.6 µM (inactive) | GI50 (LXFL 529): 9.02 µM (inactive) | GI50 (Malme-3M): 6.44 µM (inactive) | GI50 (TK-10): 30.1 µM (inactive) | GI50 (SNB-78): 17.1 µM (inactive) | GI50 (HL-60): 8.69 µM (inactive) | GI50 (OVCAR-8): 16 µM (inactive) | GI50 (UO-31): 19.8 µM (inactive) | GI50 (NCI-H460): 14.8 µM (inactive) | GI50 (A549): 14.5 µM (inactive) | GI50 (SN12C): 13.7 µM (inactive) | GI50 (HCT-15): 19.2 µM | GI50 (HCT-116): 19.8 µM (inactive) | GI50 (CCRF-CEM): 11 µM (inactive) | GI50 (DLD-1): 15.7 µM (inactive) | GI50 (CAKI-1): 12.6 µM (inactive) | GI50 (SK-MEL-2): 13.3 µM (inactive) | GI50 (HOP-62): 15.1 µM (inactive) | GI50 (UACC-257): 6.81 µM (inactive)
